The source of these data is patent US6372774B1, “Derivatives of N-phenylpyrazoles” (Rhone-Poulenc Agriculture Ltd., priority 1985, dated 2002).

By melting point is commonly meant the temperature of the solid-liquid transition.

Molecules are shown by their SMILES.

The first data set has as its system larvae of Rhipicephalus appendiculatus. The data set is described as follows: Test 4: tick larvae on guinea-pigs given subcutaneous injections. It is filed as in vivo. The following applies: Dose 2.5 mg/kg at each repetition; recovered ticks kept at 23° C. for 14 to 21 days. As for the experimental part: Some 20 larvae of Rhipicephalus appendiculatus were placed in plastic capsules attached to the shaved flank of guinea-pigs. After 3 hours and then at 23 hourly intervals, the guinea-pigs were given a total of 4 subcutaneous injections of the test compound. Approximately 100 hours after infestation, the guinea-pigs were killed and the engorged tick larvae recovered, counter and kept at 23° C. in a humidity cabinet for 14 to 21 days. After this period, the percentage survival through moulting was assessed.
With `CC(=O)Nc1c(C#N)c(C#N)nn1-c1c(Cl)cc(C(F)(F)F)cc1Cl` [Compound 120, 5-Acetamido-1-(2,6-dichloro-4-trifluoromethylphenyl)-3,4-dicyanopyrazole], the “percentage survival through moulting of engorged tick larvae” value is reported as “only 62.5 percent survived”.

The same data set, now with this note: Dose 3 mg/kg at each repetition; 4 subcutaneous injections to guinea-pigs; about 100 hours after infestation.
In the case of `CC(=O)Nc1c(C#N)c(C#N)nn1-c1c(Cl)cc(C(F)(F)F)cc1Cl` [Compound 120, 5-Acetamido-1-(2,6-dichloro-4-trifluoromethylphenyl)-3,4-dicyanopyrazole], the “Result: ticks recovered / number of engorged ticks” value is on record as “Less than five engorged ticks”.

The same data set, now with this note: Dose 4 mg/kg at each repetition; 4 subcutaneous injections to guinea-pigs; about 100 hours after infestation.
Regarding `CC(=O)Nc1c(C#N)c(C#N)nn1-c1c(Cl)cc(C(F)(F)F)cc1Cl` [Compound 120, 5-Acetamido-1-(2,6-dichloro-4-trifluoromethylphenyl)-3,4-dicyanopyrazole], the “Result: ticks recovered / engorgement” value was “No ticks recovered”.

Staying with this data set, now noted: Dose 5 mg/kg at each repetition; 4 subcutaneous injections to guinea-pigs; about 100 hours after infestation.
Turning to `CC(=O)Nc1c(C#N)c(C#N)nn1-c1c(Cl)cc(C(F)(F)F)cc1Cl` [Compound 120, 5-Acetamido-1-(2,6-dichloro-4-trifluoromethylphenyl)-3,4-dicyanopyrazole], the “Result: ticks recovered / engorgement” value is “No ticks recovered”.
Consider `CC(C)(C)C(=O)Nc1c(C#N)c(C#N)nn1-c1c(Cl)cc(C(F)(F)F)cc1Cl` [Compound 134, 1-(2,6-Dichloro-4-trifluoromethylphenyl)-3,4-dicyano-5-(2,2-dimethylpropionamido)-pyrazole], for which the “Result: ticks recovered / engorgement” value is listed as “Less than five engorged ticks”.

The data set is the same for the next values; noted with them: Dose 10 mg/kg at each repetition; 4 subcutaneous injections to guinea-pigs; about 100 hours after infestation.
Consider `CC(C)(C)C(=O)Nc1c(C#N)c(C#N)nn1-c1c(Cl)cc(C(F)(F)F)cc1Cl` [Compound 134, 1-(2,6-Dichloro-4-trifluoromethylphenyl)-3,4-dicyano-5-(2,2-dimethylpropionamido)-pyrazole], for which the “Result: ticks recovered / engorgement” value was “No ticks recovered”.

Tested on in the next data set: not given
Assay: not given
Settings: not given
Molecule `CCOC(C)=Nc1c(C#N)c(C)nn1-c1c(Cl)cc(C(F)(F)F)cc1Cl` [Compound 168, 4-Cyano-1-(2,6-dichloro-4-trifluoromethylphenyl)-5-(1-ethoxyethylideneamino)-3-methylpyrazole] returned a melting point of 50 to 53 °C.
`Cc1nn(-c2c(Cl)cc(C(F)(F)F)cc2Cl)c(N2C(=O)CCC2=O)c1C#N` [Compound 169, 4-Cyano-1-(2,6-dichloro-4-trifluoromethylphenyl)-3-methyl-5-succinimidopyrazole] yielded a melting point of 202 to 204 °C.
For the molecule `CC(=O)Nc1c(S(C)(=O)=O)c(C(F)(F)F)nn1-c1c(Cl)cc(C(F)(F)F)cc1Cl` [Compound 170, 5-Acetamido-1-(2,6-dichloro-4-trifluoromethylphenyl)-4-methanesulphonyl-3-trifluoromethylpyrazole], the melting point lay within 194 to 195 °C.
Take `N#Cc1nn(-c2c(Cl)cc([N+](=O)[O-])cc2Cl)c(N)c1C#N` [Compound 172, 5-Amino-1-(2,6-dichloro-4-nitrophenyl)-3,4-dicyanopyrazole]: the melting point lay within 289 to 290 °C.
On to `CCOC(=O)N(C)c1c(C#N)c(C(F)(F)F)nn1-c1c(Cl)cc(C(F)(F)F)cc1Cl` [Compound 175, 4-Cyano-1-(2,6-dichloro-4-trifluoromethylphenyl)-5-(N-methyl-N-ethoxycarbonylamino)-3-trifluoromethylpyrazole], for which the melting point lay in the range of 88 to 90 °C.
Still for that read-out and setting: then `CC(=O)Nc1c([N+](=O)[O-])c(C(F)(F)F)nn1-c1c(Cl)cc(C(F)(F)F)cc1Cl` [Compound 192, 5-Acetamido-1-(2,6-dichloro-4-trifluoromethylphenyl)-4-nitro-3-trifluoromethylpyrazole], with 194 to 195 °C; and `N#Cc1c(C(F)(F)F)nn(-c2c(Cl)cc(C(F)(F)F)cc2Cl)c1SC(F)(F)F` [Compound 208, 4-Cyano-1-(2,6-dichloro-4-trifluoromethylphenyl)-3-trifluoromethyl-5-trifluoromethylthiopyrazole], with 120 to 122 °C; and `N#Cc1c(C(F)(F)F)nn(-c2c(Cl)cc(C(F)(F)F)cc2Cl)c1C(=O)O` [Compound 209, 5-Carboxy-4-cyano-1-(2,6-dichloro-4-trifluoromethylphenyl)-3-trifluoromethylpyrazole], with 177 to 179 °C.
Molecule `CC(=O)c1cn(-c2c(Cl)cc(C(F)(F)F)cc2Cl)nc1C(F)(F)F` [Compound 215, 4-Acetyl-1-(2,6-dichloro-4-trifluoromethylphenyl)-3-trifluoromethylpyrazole] came in with a melting point of 134 °C.
As to `CC[S+]([O-])c1c(C)nn(-c2c(Cl)cc(C(F)(F)F)cc2Cl)c1N` (centres unmarked) [Compound 218, 5-Amino-1-(2,6-dichloro-4-trifluoromethylphenyl)-4-ethylsulphinyl-3-methylpyrazole], the melting point was in the range of 157 to 158 °C.
Molecule `CCS(=O)(=O)c1c(C)nn(-c2c(Cl)cc(C(F)(F)F)cc2Cl)c1N` [Compound 222, 5-Amino-1-(2,6-dichloro-4-trifluoromethylphenyl)-4-ethylsulphonyl-3-methylpyrazole] came in with a melting point of 193 °C.
As for `CCCS(=O)(=O)c1c(C)nn(-c2c(Cl)cc(C(F)(F)F)cc2Cl)c1N` [Compound 223, 5-Amino-1-(2,6-dichloro-4-trifluoromethylphenyl)-3-methyl-4-propanesulphonylpyrazole], the melting point was 145.5 to 147 °C.
Still for that read-out and setting: to `CCCSc1c(C)nn(-c2c(Cl)cc(C(F)(F)F)cc2Cl)c1N` [Compound 227, 5-Amino-1-(2,6-dichloro-4-trifluoromethylphenyl)-4-n-propylthio-3-methylpyrazole] belongs 100 to 102 °C; to `N#CSc1c(C(F)(F)F)nn(-c2c(Cl)cc(C(F)(F)F)cc2Cl)c1N` [Compound 230, 5-Amino-1-(2,6-dichloro-4-trifluoromethylphenyl)-4-thiocyanato-3-trifluoromethylpyrazole], 49 to 50 °C; to `Cc1nn(-c2c(Cl)cc(C(F)(F)F)cc2Cl)c(N)c1SC#N` [Compound 231, 5-Amino-1-(2,6-dichloro-4-trifluoromethylphenyl)-3-methyl-4-thiocyanatopyrazole], 133.5 °C.
`CS(=O)(=O)c1cc(Cl)c(-n2nc(C(F)(F)F)c(C#N)c2N)c(Cl)c1` [Compound 232, 5-Amino-4-cyano-1-(2,6-dichloro-4-methanesulphonylphenyl)-3-trifluoromethylpyrazole] showed a melting point of 270 to 272 °C.
As for `Cc1nn(-c2c(Cl)cc(C(F)(F)F)cc2Cl)c(N)c1SC(Cl)(Cl)Cl` [Compound 233, 5-Amino-1-(2,6-dichloro-4-trifluoromethylphenyl)-3-methyl-4-trichloromethylthiopyrazole], the melting point stood at 156 °C.
On to `N#Cc1c(C(F)(F)F)nn(-c2c(Cl)cc(S(=O)(=O)C(F)(F)F)cc2Cl)c1[N+](=O)[O-]` [Compound 234, 4-Cyano-1-(2,6-dichloro-4-trifluoromethanesulphonylphenyl)-5-nitro-3-trifluoromethylpyrazole], for which the melting point fell in the range of 168 to 169 °C.
`FC(F)c1cn(-c2c(Cl)cc(C(F)(F)F)cc2Cl)nc1C(F)(F)F` [Compound 235, 1-(2,6-Dichloro-4-trifluoromethylphenyl)-4-difluoromethyl-3-trifluoromethylpyrazole]: the melting point was in the range of 88 to 90 °C.
In turn, `Cc1c(C(F)(F)F)nn(-c2c(Cl)cc(C(F)(F)F)cc2Cl)c1N` [Compound 236, 5-Amino-1-(2,6-dichloro-4-trifluoromethylphenyl)-4-methyl-3-trifluoromethylpyrazole] gave a melting point of 97 to 100 °C.
